Results published in ChEMBL document CHEMBL5614446, “Side Chain Investigation of Imidazopyridazine as a Hinge Binder for Targeting Actionable Mutations of RET Kinase” (ACS Med Chem Lett, 2024).

Assays:
[1] = molecular target: Proto-oncogene tyrosine-protein kinase receptor Ret (Homo sapiens, UniProt P07949, G810R); test: Inhibition of human RET kinase-G810R mutant using RRRRRRRRRRRVYSTDYYRLFNPS as substrate in presence of [gamma33P]-ATP and 10 uM ATP by radiometric HotSpot assay
[2] = molecular target: Proto-oncogene tyrosine-protein kinase receptor Ret (Homo sapiens, UniProt P07949, V804M); test: Inhibition of human RET kinase-V804M mutant using RRRRRRRRRRRVYSTDYYRLFNPS as substrate in presence of [gamma33P]-ATP and 10 uM ATP by radiometric HotSpot assay
[3] = Inhibition of human […]-RET kinase-V804M mutant in presence of [gamma33P]-ATP and 10 uM ATP by radiometric HotSpot assay
[4] = system: Proto-oncogene tyrosine-protein kinase receptor Ret (Homo sapiens), P07949 [G810R]; test: Inhibition of human RET kinase-G810R mutant assessed as residual activity at 0.1 uM using RRRRRRRRRRRVYSTDYYRLFNPS as substrate in presence of [gamma33P]-ATP and 10 uM ATP by radiometric HotSpot assay
[5] = system: Proto-oncogene tyrosine-protein kinase receptor Ret (Homo sapiens), P07949 [V804M]; test: Inhibition of human RET kinase-V804M mutant at 0.1 uM using RRRRRRRRRRRVYSTDYYRLFNPS as substrate in presence of [gamma33P]-ATP and 10 uM ATP by radiometric HotSpot assay relative to control
BaF3 [6] = test: Cytotoxicity against mouse BaF3 cells expressing […]-RET kinase fusion protein assessed as inhibition of cell proliferation incubated for 72 hrs by CCK8 assay; type: functional, cell-based; details: BaF3, 72 h
BaF3 [7] = test: Cytotoxicity against mouse BaF3 cells expressing […]-RET kinase-V804L mutant fusion protein assessed as inhibition of cell proliferation incubated for 72 hrs by CCK8 assay; type: functional, cell-based; details: BaF3, 72 h
BaF3 [8] = test: Cytotoxicity against mouse BaF3 cells expressing […]-RET kinase-G810R mutant fusion protein assessed as inhibition of cell proliferation incubated for 72 hrs by CCK8 assay; type: functional, cell-based; details: BaF3, 72 h
BaF3 [9] = test: Cytotoxicity against mouse BaF3 cells expressing […]-RET kinase-G810S mutant fusion protein assessed as inhibition of cell proliferation incubated for 72 hrs by CCK8 assay; type: functional, cell-based; details: BaF3, 72 h
BaF3 [10] = test: Cytotoxicity against mouse BaF3 cells expressing […]-RET kinase-G810C mutant fusion protein assessed as inhibition of cell proliferation incubated for 72 hrs by CCK8 assay; type: functional, cell-based; details: BaF3, 72 h
BaF3 [11] = test: Cytotoxicity against mouse BaF3 cells expressing […]-RET kinase-G810A mutant fusion protein assessed as inhibition of cell proliferation incubated for 72 hrs by CCK8 assay; type: functional, cell-based; details: BaF3, 72 h
BaF3 [12] = test: Cytotoxicity against mouse BaF3 cells expressing […]-RET kinase-V804M mutant fusion protein assessed as inhibition of cell proliferation incubated for 72 hrs by CCK8 assay; type: functional, cell-based; details: BaF3, 72 h
[13] = molecular target: Proto-oncogene tyrosine-protein kinase receptor Ret (Homo sapiens, UniProt P07949); test: Inhibition of human wild type RET kinase using RRRRRRRRRRRVYSTDYYRLFNPS as substrate in presence of [gamma33P]-ATP and 10 uM ATP by radiometric HotSpot assay
[14] = molecular target: Kinesin-1 heavy chain/ Tyrosine-protein kinase receptor RET (Homo sapiens, UniProt P07949); test: Inhibition of human […]-RET kinase in presence of [gamma33P]-ATP and 10 uM ATP by radiometric HotSpot assay; type: protein assay
Kinesin-1 heavy chain/ Tyrosine-protein kinase receptor RET, sequence (P07949 whole entry): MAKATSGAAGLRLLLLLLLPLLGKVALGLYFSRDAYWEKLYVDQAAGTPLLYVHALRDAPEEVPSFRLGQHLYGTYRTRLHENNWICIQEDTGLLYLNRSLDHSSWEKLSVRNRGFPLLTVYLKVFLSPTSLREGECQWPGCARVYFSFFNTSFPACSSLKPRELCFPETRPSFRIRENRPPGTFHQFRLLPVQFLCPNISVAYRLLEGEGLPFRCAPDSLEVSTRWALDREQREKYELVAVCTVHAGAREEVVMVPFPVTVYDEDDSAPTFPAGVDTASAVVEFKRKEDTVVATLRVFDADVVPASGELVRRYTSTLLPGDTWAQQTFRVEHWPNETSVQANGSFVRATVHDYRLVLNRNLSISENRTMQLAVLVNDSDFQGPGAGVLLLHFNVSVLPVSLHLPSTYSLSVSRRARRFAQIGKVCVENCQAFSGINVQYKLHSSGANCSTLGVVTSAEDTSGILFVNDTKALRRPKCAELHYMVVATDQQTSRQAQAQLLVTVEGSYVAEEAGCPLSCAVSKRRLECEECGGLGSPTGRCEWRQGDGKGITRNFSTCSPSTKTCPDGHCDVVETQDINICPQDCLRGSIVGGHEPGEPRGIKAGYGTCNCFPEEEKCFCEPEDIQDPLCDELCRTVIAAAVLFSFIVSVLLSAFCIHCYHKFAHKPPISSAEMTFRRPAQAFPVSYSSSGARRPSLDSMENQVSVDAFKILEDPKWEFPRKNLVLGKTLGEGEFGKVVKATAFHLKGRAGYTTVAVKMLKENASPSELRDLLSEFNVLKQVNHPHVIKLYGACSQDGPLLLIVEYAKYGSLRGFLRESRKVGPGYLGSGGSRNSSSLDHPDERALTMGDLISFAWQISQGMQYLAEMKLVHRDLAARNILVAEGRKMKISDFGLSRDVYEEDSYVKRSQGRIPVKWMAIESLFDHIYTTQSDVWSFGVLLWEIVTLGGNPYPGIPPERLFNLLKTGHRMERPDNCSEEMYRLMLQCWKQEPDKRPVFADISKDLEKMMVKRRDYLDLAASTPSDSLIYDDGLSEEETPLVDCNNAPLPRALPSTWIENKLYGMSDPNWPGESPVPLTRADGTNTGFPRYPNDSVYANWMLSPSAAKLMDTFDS
Kinesin-1 heavy chain/ Tyrosine-protein kinase receptor RET, sequence (P33176 whole entry, further chain): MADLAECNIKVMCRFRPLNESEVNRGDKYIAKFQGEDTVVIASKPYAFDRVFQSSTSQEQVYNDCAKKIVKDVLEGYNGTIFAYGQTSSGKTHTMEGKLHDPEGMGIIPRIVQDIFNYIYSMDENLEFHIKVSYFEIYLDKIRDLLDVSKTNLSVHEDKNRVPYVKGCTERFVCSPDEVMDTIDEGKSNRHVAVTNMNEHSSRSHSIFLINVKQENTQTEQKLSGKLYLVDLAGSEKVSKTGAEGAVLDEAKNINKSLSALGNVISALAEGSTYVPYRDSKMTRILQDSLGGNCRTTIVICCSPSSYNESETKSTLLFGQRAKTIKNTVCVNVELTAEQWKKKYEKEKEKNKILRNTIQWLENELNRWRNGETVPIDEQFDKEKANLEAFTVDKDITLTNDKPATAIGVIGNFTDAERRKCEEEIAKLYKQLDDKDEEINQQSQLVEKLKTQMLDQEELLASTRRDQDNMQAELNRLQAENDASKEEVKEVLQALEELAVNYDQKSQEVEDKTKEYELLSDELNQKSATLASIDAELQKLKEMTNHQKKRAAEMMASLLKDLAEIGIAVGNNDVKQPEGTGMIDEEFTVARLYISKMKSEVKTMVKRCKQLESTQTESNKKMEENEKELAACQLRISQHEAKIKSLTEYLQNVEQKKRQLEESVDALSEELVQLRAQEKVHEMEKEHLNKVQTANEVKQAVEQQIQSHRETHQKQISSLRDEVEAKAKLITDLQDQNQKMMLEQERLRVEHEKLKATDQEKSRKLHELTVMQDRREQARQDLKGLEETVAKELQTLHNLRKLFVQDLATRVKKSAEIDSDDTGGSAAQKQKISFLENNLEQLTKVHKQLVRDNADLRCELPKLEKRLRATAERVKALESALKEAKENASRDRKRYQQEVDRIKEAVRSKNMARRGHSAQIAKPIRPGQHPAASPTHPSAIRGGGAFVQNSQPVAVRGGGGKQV

Proto-oncogene tyrosine-protein kinase receptor Ret (Homo sapiens, UniProt P07949, V804M), sequence (P07949 29-1114 V804M limits assumed): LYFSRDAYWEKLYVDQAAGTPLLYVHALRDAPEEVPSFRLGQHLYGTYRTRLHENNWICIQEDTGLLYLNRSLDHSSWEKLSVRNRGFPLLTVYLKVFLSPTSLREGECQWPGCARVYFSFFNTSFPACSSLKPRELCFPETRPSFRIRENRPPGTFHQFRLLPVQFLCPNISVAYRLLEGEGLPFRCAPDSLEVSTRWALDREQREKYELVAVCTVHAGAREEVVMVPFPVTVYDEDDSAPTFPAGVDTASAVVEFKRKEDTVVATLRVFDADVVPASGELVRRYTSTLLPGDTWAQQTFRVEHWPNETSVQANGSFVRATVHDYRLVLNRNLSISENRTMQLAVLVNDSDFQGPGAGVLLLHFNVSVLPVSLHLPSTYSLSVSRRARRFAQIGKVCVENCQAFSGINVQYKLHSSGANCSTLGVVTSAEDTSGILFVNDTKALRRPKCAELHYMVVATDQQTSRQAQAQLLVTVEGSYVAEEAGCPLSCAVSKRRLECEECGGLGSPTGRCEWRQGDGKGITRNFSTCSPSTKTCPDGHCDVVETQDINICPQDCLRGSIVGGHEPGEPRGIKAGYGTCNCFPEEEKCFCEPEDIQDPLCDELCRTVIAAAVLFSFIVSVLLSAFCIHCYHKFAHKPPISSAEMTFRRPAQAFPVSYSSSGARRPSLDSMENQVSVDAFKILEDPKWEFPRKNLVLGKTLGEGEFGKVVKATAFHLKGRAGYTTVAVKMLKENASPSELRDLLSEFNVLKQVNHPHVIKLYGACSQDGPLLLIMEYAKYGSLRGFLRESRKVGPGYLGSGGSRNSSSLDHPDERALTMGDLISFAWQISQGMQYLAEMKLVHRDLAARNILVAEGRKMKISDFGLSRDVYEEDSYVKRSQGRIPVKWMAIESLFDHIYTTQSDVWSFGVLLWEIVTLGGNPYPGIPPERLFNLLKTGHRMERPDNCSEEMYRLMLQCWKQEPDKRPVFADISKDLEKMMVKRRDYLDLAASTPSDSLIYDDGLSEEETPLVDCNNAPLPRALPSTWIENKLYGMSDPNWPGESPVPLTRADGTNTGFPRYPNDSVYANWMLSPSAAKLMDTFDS
Proto-oncogene tyrosine-protein kinase receptor Ret (Homo sapiens, UniProt P07949), sequence (P07949 whole entry): as the sequence (P07949 whole entry) above
Proto-oncogene tyrosine-protein kinase receptor Ret (Homo sapiens, UniProt P07949, G810R), sequence (P07949 29-1114 G810R limits assumed): as the sequence (P07949 29-1114 V804M limits assumed) above, with M776V, G782R counted along it
Proto-oncogene tyrosine-protein kinase receptor Ret (Homo sapiens), P07949 [G810R], sequence (P07949 whole entry G810R): as the sequence (P07949 whole entry) above, with G810R counted along it
Proto-oncogene tyrosine-protein kinase receptor Ret (Homo sapiens), P07949 [V804M], sequence (P07949 whole entry V804M, the tested form may be a part): as the sequence (P07949 whole entry) above, with V804M counted along it

Compound | IC50 [1] | IC50 [2] | IC50 [3] | Activity [4] | inhibition [5] | IC50 (BaF3 [6]) | IC50 (BaF3 [7]) | IC50 (BaF3 [8]) | IC50 (BaF3 [9]) | IC50 (BaF3 [10]) | IC50 (BaF3 [11]) | IC50 (BaF3 [12]) | IC50 [13] | IC50 [14]
Cc1ccc(C(=O)Nc2cc(CN3CCN(C)CC3)cc(C(F)(F)F)c2)cc1C#Cc1cnc2ccc(N3CCOCC3)nn12 | 41.3 nM | 0.1 nM | 47.8 nM | 26.4% | – | – | – | – | – | – | – | – | – | –
Cc1ccc(C(=O)Nc2cc(CN3CCN(C)CC3)cc(C(F)(F)F)c2)cc1C#Cc1cnc2ccc(Cl)nn12 | 19.8 nM | < 0.5 nM | 281 nM | – | 100% | – | – | – | – | – | – | – | – | –
CCOC(=O)c1nc2n(c1C#Cc1cc(C(=O)Nc3cc(-n4cnc(C)c4)cc(C(F)(F)F)c3)ccc1C)NC(NC1CC1)C=C2 (stereo not drawn) | – | – | – | – | – | 3000 nM | 3300 nM | 3800 nM | 3000 nM | 2900 nM | 3800 nM | – | – | –
COc1ccc(Nc2ccc3ncc(C#Cc4cc(C(=O)Nc5cc(CN6CCN(C)CC6)cc(C(F)(F)F)c5)ccc4C)n3n2)cc1 | 89.8 nM | 0.9 nM | 137 nM | 46.6% | – | – | – | – | – | – | – | – | – | –
COc1ccc(CN2C3CC2CN(c2ccc(-c4cc(OCC(C)(C)O)cn5ncc(C#N)c45)cn2)C3)cn1 [SELPERCATINIB] | – | – | – | – | – | 10 nM | 20 nM | 2100 nM | 400 nM | 5800 nM | 260 nM | 100 nM | – | –
Cc1cn(-c2cc(NC(=O)c3cc(C#Cc4cnc5ccc(OCCN6CCOCC6)nn45)c(C)cc3F)cc(C(C)(C)C#N)c2)cn1 | 1300 nM | 7.4 nM | 622 nM | – | – | 100 nM | 1800 nM | 400 nM | 100 nM | 600 nM | 50 nM | 1600 nM | 345 nM | 43.7 nM
Cc1ccc(C(=O)Nc2ccc(CN3CCN(C)CC3)c(C(F)(F)F)c2)cc1C#Cc1cnc2ccc(OCCNC(C)C)nn12 | 25.3 nM | < 0.5 nM | 19.4 nM | – | – | – | – | – | – | – | – | – | 3.6 nM | 1.2 nM
CCOC(=O)c1nc2ccc(NCCN3CCCCC3)nn2c1C#Cc1cc(C(=O)Nc2cc(-n3cnc(C)c3)cc(C(C)(C)C#N)c2)c(NCCN2CCCCC2)cc1C | – | – | – | – | – | 900 nM | 1600 nM | 1200 nM | 1600 nM | 1700 nM | 1200 nM | – | – | –
CCOC(=O)c1nc2ccc(Nc3cc(C)[nH]n3)nn2c1C#Cc1cc(C(=O)Nc2cc(-n3cnc(C)c3)cc(C(F)(F)F)c2)ccc1C | > 2000 nM | 102 nM | > 2000 nM | – | – | – | – | – | – | – | – | – | 921 nM | > 2000 nM
Cc1ccc(C(=O)Nc2ccc(CN3CCN(C)CC3)c(C(F)(F)F)c2)cc1C#Cc1cnc2ccc(OCCN3CCOCC3)nn12 | 11 nM | < 0.5 nM | 84.5 nM | – | – | – | – | – | – | – | – | – | 478 nM | 129 nM
